We go through 11 compounds from article PMC10853860 (2023).

In test [1] the test system is T. ilyis ldcC SAM-I variant riboswitch WT (TiltrxWT) (RNA, riboswitch) AAAAUAUCUCUUAUUAAUAGCCGUUGAGACGAGGGGUCGAAGAUACGGUGGCAAACCAAUCAAUCCAAUUUUUUUGCAGUACGGAUUGAUAUUGGGUGCCCAACCUGAGCGUAGGAUUAUCCAAGUCCUAUGAGCAAUAAGAGGAAAAGCAGCUGAUAGAUAUCGAAGCUUUCCUUUGGUUGGAGAGCUUUUUUUAUGCCCAUUUUUUAUAUCAAAGGGGGAAAUCUAU
In words: single-round transcription termination. To be noted: 100 mM KCl, 2 mM MgCl2, 20 mM Tris-HCl pH 8.0, 37 °C; for binding: 1 mM tested, no termination increase; for T50: E. coli RNA polymerase, apparent.

Test [2] relates to 135 metK RNA (RNA, riboswitch) GGUCUAUCUUAUUAAUAGCCGUUGAGACGAGGGGUCGAAGAAGCGGUGGCAAACCAGUCCAAAUCAAUGAUUUGGAUAUGGGGCCCAACCUGAGCGCAGAGCUUUUCUGUUCUGUGAACAAUAAGAGGAUAAGCAG
In words: in-line probing. To be noted: 100 mM KCl, 2 mM MgCl2, 50 mM Tris-HCl pH 7.5, ~20 °C, apparent.

The test system of test [3] is T. ilyis hypo consensus SAM-I riboswitch (TilconsSAMItrx) (RNA, riboswitch) AAAAUAACUUCUUUAUCACGAGAGAUUGAGGGACUGGCCCGAUGACAUCUCAGCAACCGACCCACGCGUAACGCGGCGGCACGGUGCUAAAUCCUGCAGAGUAAUCUGAGAGAUAAGAAGAGCAAAUCGACAUUCCCGACUCUUCUUGUUAUAAGAAGGGUUUUUUGUUUUCAAAAAAACAAUCUGGAGGGAAAAACG
In words: single-round transcription termination. Conditions: 100 mM KCl, 2 mM MgCl2, 20 mM Tris-HCl pH 8.0, 37 °C.

Test [4] has as its system 135 metK M14 (RNA, riboswitch) GGUCUAUCUUAUUAAAAGCCGUUGAGACGAGGGGUCGAAGAAGCGGUGGCAUACCAGUCCAAAUCAAUGAUUUGGAUAUGGGGCCAAACCUGAGCGCAGAGCUUUUCUGUUCUGUGAACAAUAAGAGGAUAAGCAG
In words: in-line probing. To be noted: 100 mM KCl, 2 mM MgCl2; 50 mM Tris-HCl pH 7.5, ~20 °C; 1 and 5.6 mM tested.

Test [5] relates to T. ilyis ldcC M9 (TiltrxshortP1) (RNA, riboswitch) AAUUAAUAGCCGUUGAGACGAGGGGUCGAAGAUACGGUGGCAAACCAAUCAAUCCAAUUUUUUUGCAGUACGGAUUGAUAUUGGGUGCCCAACCUGAGCGUAGGAUUAUCCAAGUCCUAUGAGCAAUAAGAGGAAAAGCAGCUGAUAGAUAUCGAAGCUUUCCUUUGGUUGGAGAGCUUUUUUUAUGCCCAUUUUUUAUAUCAAAGGGGGAAAUCUAU
In words: single-round transcription termination. To be noted: 100 mM KCl, 2 mM MgCl2; 20 mM Tris-HCl pH 8.0, 37 °C; no termination response.

Test [6] has as its system (RNA, riboswitch) AAAAUAUCUCUUAUUAAUAGCCGUUGAGACGAGGGGUCGAAGAUACGGUGGCAAACCAAUCAAUCCAAUUUUUUUGCAGUACGGAUUGAUAUUGGGUGCCCAACCUGAGCGUAGGAUUAUCCAAGUCCUAUGAGCAAUAAGAGGAAAAGCAGCUGAUAGAUAUCGAAGCUUUCCUUUGGUUGGAGAGCUUUUUUUAUGCCCAUUUUUUAUAUCAAAGGGGGAAAUCUAU
Nature of the test: single-round transcription termination. To be noted: 100 mM KCl, 2 mM MgCl2; 20 mM Tris-HCl pH 8.0, 37 °C; 1 mM tested; no termination increase.

As for `CC(=O)NCCCNCCCCN`, the binding result in test [1] was “no”.

Consider `CC(=O)NCCCNCCCCNCCCN`, for which, in test [2] (Hill 1.5), the KD is on record as ~ 860 μM.

For the compound `CCCNCCCN`, the binding result in test [1] is “no”.

Consider `CCNCCCN`, for which the binding entry in test [1] is “no”.

For the compound `CNCCCN`, the binding result in test [1] was “no”.

For `CSC[C@H]1O[C@@H](n2cnc3c(N)ncnc32)[C@H](O)[C@@H]1O`, the binding result in test [1] is “no”.

On to `C[S+](CC[C@H](N)C(=O)O)C[C@H]1O[C@@H](n2cnc3c(N)ncnc32)[C@H](O)[C@@H]1O` (some centres unmarked), for which the binding result in test [1] was “no”; in test [3] (1 mM SAM, strong termination) it was “yes”.

On to `NCCCCNCCCN`, for which the KD in test [2] (Hill 1.4, replicate ~730 μM) is recorded as ~ 670 μM. Also, the binding result in test [4] is reported as “weak”; in test [5], “no”; in test [3] (1 mM tested, no termination response) it was “no”. Moreover, in test [1], the T50 amounted to 214 µM.

For the compound `NCCCN`, the binding result in test [1] was “no”.

On to `NCCCNCCCCNCCCN`, for which the KD in test [2] (Hill 1.4) is given as ~ 340 μM. Besides, in test [1], the T50 came to 79 µM.

Consider `NCCCSC[C@H]1O[C@@H](n2cnc3c(N)ncnc32)[C@H](O)[C@@H]1O`, for which the binding result in test [6] is reported as “no”.
